Laboratory results: DBAASP
Values after ≈ are worked out from the molar mass of the structure shown. Blank lines part the entries; values can stand above or below the molecule they belong to.

How the values were obtained:
Experiment in all cases: ≥ marks a high value that may be exact or a test limit, other limits are often not marked, values filed in µg/mL are converted to µM
[1] = test system: Escherichia coli K12 MG1655
[2] = test system: Escherichia coli NCTC 10418
[3] = test system: Candida albicans NCYC 1467
[4] = test system: Staphylococcus aureus NCTC 10788
[5] = test system: Pseudomonas aeruginosa ATCC 27853
[6] = test system: Staphylococcus aureus NCTC 12493
[7] = test system: Enterococcus faecalis NCTC 12697
[8] = test system: Staphylococcus aureus USA 100
[9] = test system: Escherichia coli DH5alpha
[10] = test system: Micrococcus luteus ATCC 4698
[11] = test system: Staphylococcus aureus ATCC 6538
[12] = test system: Staphylococcus epidermidis ATCC 12228
[13] = test system: Streptococcus mutans UA159
[14] = test system: Pseudomonas aeruginosa ATCC 9027
[15] = test system: Staphylococcus aureus USA 300
[16] = test system: Candida albicans ATCC 90028
[17] = test system: Staphylococcus aureus ATCC BAA-1556
[18] = test system: Bacillus cereus ATCC 11778
[19] = test system: Staphylococcus aureus ATCC 25923
[20] = test system: Escherichia coli ATCC 35218
Bacillus subtilis = test system: Bacillus subtilis
[21] = test system: Salmonella enterica subsp. enterica serovar Typhimurium ATCC 14028
[22] = test system: Streptococcus pyogenes ATCC 19615
[23] = test system: Klebsiella pneumoniae ATCC 13883
[24] = test system: Enterococcus faecalis ATCC 29212
Escherichia coli = test system: Escherichia coli
[25] = test system: Pseudomonas aeruginosa ATCC 15442
[26] = test system: Staphylococcus aureus ATCC 29213

MIC [1]: ≥ 71.1 µM
SMILES: CC[C@H](C)[C@H](NC(=O)[C@H](CC(C)C)NC(=O)[C@H](Cc1ccc(O)cc1)NC(=O)[C@H](CC(C)C)NC(=O)[C@H](CC(C)C)NC(=O)[C@H](CC(C)C)NC(=O)[C@H](CCCN=C(N)N)NC(=O)[C@H](CC(C)C)NC(=O)[C@H](CCCN=C(N)N)NC(=O)[C@H](C)NC(=O)[C@H](C)NC(=O)[C@H](C)N)C(=O)N[C@H](C(=O)N[C@@H](CCCN=C(N)N)C(=O)N[C@@H](CCCN=C(N)N)C(=O)O)[C@@H](C)O [AAARLRLLLYLITRR]

MIC [2]: 16 µM (≈ 40.6 µg/mL)
MIC [3]: 16 µM (≈ 40.6 µg/mL)
MIC [4]: ≥ 32 µM
MIC [5]: 64 µM (≈ 162 µg/mL)
MIC [6]: ≥ 512 µM
MIC [7]: ≥ 32 µM
SMILES: CC[C@H](C)[C@H](NC(=O)[C@H](CCC(=O)O)NC(=O)[C@H](CC(N)=O)NC(=O)[C@H](CC(C)C)NC(=O)[C@H](C)NC(=O)[C@H](C)NC(=O)[C@H](CCCCN)NC(=O)CNC(=O)[C@H](C)NC(=O)[C@H](CC(N)=O)NC(=O)[C@H](CCCCN)NC(=O)[C@H](CC(C)C)NC(=O)[C@@H](NC(=O)[C@H](CCC(=O)O)NC(=O)[C@H](CCCCN)NC(=O)[C@H](Cc1c[nH]c2ccccc12)NC(=O)[C@H](CC(C)C)NC(=O)[C@H](C)N)C(C)C)C(=O)N[C@@H](CC(N)=O)C(=O)N[C@@H](CC(N)=O)C(=O)N[C@@H](CC(C)C)C(=O)N[C@H](C(=O)N[C@@H](CCC(N)=O)C(N)=O)C(C)C [ALWKEVLKNAGKAALNEINNLVQ]

MIC [8]: ≥ 100 µM
SMILES: C[C@H](N)C(=O)N[C@@H](CCCN=C(N)N)C(=O)N[C@@H](C)C(=O)N[C@@H](CCCN=C(N)N)C(N)=O [ARAR]

MIC [9]: ≥ 299 µM
MIC [10]: ≥ 112 µM
MIC [11]: 209 µM (≈ 280 µg/mL)
MIC [12]: > 299 µM
SMILES: CC(C)C[C@H](NC(=O)[C@H](CC(C)C)NC(=O)[C@H](CCCCN)NC(=O)[C@H](CO)NC(=O)[C@H](CC(C)C)NC(=O)[C@H](C)NC(=O)[C@H](CCCCN)NC(=O)[C@H](Cc1ccccc1)NC(=O)[C@H](C)NC(=O)[C@H](C)NC(=O)CNC(=O)[C@H](C)NC(=O)[C@@H](N)Cc1ccccc1)C(=O)O [FAGAAFKALSKLL]

MIC [13]: 8.48 µM (≈ 22.1 µg/mL)
SMILES: CC[C@H](C)[C@H](NC(=O)[C@H](CCCN=C(N)N)NC(=O)[C@H](C)NC(=O)[C@H](Cc1ccccc1)NC(=O)[C@H](Cc1ccccc1)NC(=O)[C@H](CCCCN)NC(=O)[C@H](CCCN=C(N)N)NC(=O)[C@H](CC(C)C)NC(=O)[C@@H](NC(=O)[C@H](CCCCN)NC(=O)[C@@H]1CCCN1C(=O)[C@H](CC(C)C)NC(=O)[C@@H](N)Cc1ccccc1)[C@@H](C)O)C(=O)N[C@@H](CCCN=C(N)N)C(=O)NCC(=O)NCC(=O)N[C@@H](CCCN=C(N)N)C(=O)N[C@@H](C)C(=O)N[C@@H](C)C(=O)N[C@H](C(=O)N[C@@H](CC(C)C)C(=O)N[C@@H](CC(N)=O)C(=O)N[C@@H](C)C(=O)O)C(C)C [FLPKTLRKFFARIRGGRAAVLNA]

MIC [8]: ≥ 100 µM
MIC [14]: > 100 µM
MIC [15]: ≥ 100 µM
MIC [16]: ≥ 100 µM
SMILES: NCCCC[C@H](NC(=O)[C@H](Cc1cnc[nH]1)NC(=O)CN)C(=O)O [GHK]

MIC [17]: ≥ 100 µM
SMILES: CC(C)C[C@H](NC(=O)[C@H](Cc1c[nH]c2ccccc12)NC(=O)[C@H](CCCCN)NC(=O)[C@H](CC(C)C)NC(=O)[C@H](CC(C)C)NC(=O)[C@H](CCCCN)NC(=O)[C@@H](N)CCCCN)C(N)=O [KKLLKWL]

MIC [18]: ≥ 50 µM
MIC [19]: > 50 µM
MIC [14]: > 50 µM
MIC [20]: ≥ 50 µM
SMILES: CC(C)C[C@H](NC(=O)[C@H](CC(C)C)NC(=O)[C@@H](NC(=O)[C@@H](N)CCCCN)[C@@H](C)O)C(=O)N[C@@H](CCCCN)C(=O)N[C@@H](CCCCN)C(=O)N[C@H](C(=O)N[C@@H](CC(C)C)C(=O)N[C@@H](CCCCN)C(=O)N[C@@H](C)C(=O)N[C@@H](C)C(=O)N[C@@H](C)C(N)=O)C(C)C [KTLLKKVLKAAA]

MIC [17]: 3.12 µM (≈ 4.06 µg/mL)
SMILES: CC(C)C[C@H](NC(=O)[C@H](Cc1c[nH]c2ccccc12)NC(=O)[C@H](CCCN=C(N)N)NC(=O)[C@H](CC(C)C)NC(=O)[C@H](Cc1c[nH]c2ccccc12)NC(=O)[C@H](CC(C)C)NC(=O)[C@H](CC(C)C)NC(=O)[C@H](Cc1c[nH]c2ccccc12)NC(=O)[C@@H](N)CC(C)C)C(N)=O [LWLLWLRWL]

MIC (Bacillus subtilis): ≥ 100 µM
MIC [21]: > 100 µM
MIC [19]: > 100 µM
MIC [22]: ≥ 100 µM
MIC [23]: ≥ 100 µM
MIC [24]: > 100 µM
MIC [5]: > 100 µM
MIC (Escherichia coli): > 100 µM
SMILES: CC(C)C[C@H](NC(=O)[C@H](CCCN=C(N)N)NC(=O)[C@H](CO)NC(=O)[C@H](Cc1cnc[nH]1)NC(=O)[C@@H](N)CCCN=C(N)N)C(=O)N[C@@H](CCC(N)=O)C(=O)N[C@@H](CCCN=C(N)N)C(=O)N[C@@H](CCC(=O)O)C(=O)N1CCC[C@H]1C(=O)N[C@@H](CCC(N)=O)C(=O)N[C@H](C(=O)N[C@@H](CCC(N)=O)C(=O)N[C@@H](Cc1c[nH]c2ccccc12)C(=O)N[C@@H](CC(C)C)C(=O)N[C@@H](CCC(=O)O)C(=O)N[C@@H](CCC(N)=O)C(=O)N[C@@H](CCC(N)=O)C(=O)N[C@H](C(=O)N[C@@H](C)C(=O)N[C@@H](CCCCN)C(=O)N[C@@H](CCCN=C(N)N)C(=O)N[C@@H](CCCN=C(N)N)C(=O)N[C@H](C(=O)N[C@@H](CCCCN)C(=O)N[C@@H](CCCN=C(N)N)C(=O)O)[C@@H](C)O)C(C)C)C(C)C [RHSRLQREPQVQWLEQQVAKRRTKR]

MIC [8]: ≥ 100 µM
SMILES: C[C@@H](O)[C@H](N)C(=O)N[C@@H](CCCN=C(N)N)C(=O)N[C@H](C(=O)N[C@@H](CCCN=C(N)N)C(N)=O)[C@@H](C)O [TRTR]

MIC [25]: ≥ 78.9 µM
MIC [26]: 39.4 µM (≈ 64 µg/mL)
MIC [24]: 78.9 µM (≈ 128 µg/mL)
SMILES: CC[C@H](C)[C@H](NC(=O)[C@H](C)NC(=O)[C@@H](N)C(C)C)C(=O)N[C@@H](C)C(=O)N[C@@H](CC(C)C)C(=O)N[C@@H](CCCCN)C(=O)N[C@@H](C)C(=O)N[C@@H](C)C(=O)N[C@@H](C)C(=O)N[C@@H](Cc1ccc(O)cc1)C(=O)N[C@@H](Cc1cnc[nH]1)C(=O)N[C@H](C(=O)N[C@@H](Cc1cnc[nH]1)C(=O)N[C@@H](CCCCN)C(=O)N[C@@H](CCC(=O)O)C(=O)O)[C@@H](C)O [VAIALKAAAYHTHKE]

MIC [17]: 25 µM (≈ 37.1 µg/mL)
SMILES: CC(=O)N[C@@H](Cc1c[nH]c2ccccc12)C(=O)N[C@@H](Cc1c[nH]c2ccccc12)C(=O)N[C@@H](CC(C)C)C(=O)N[C@@H](Cc1c[nH]c2ccccc12)C(=O)N[C@@H](Cc1c[nH]c2ccccc12)C(=O)N[C@@H](CC(C)C)C(=O)N[C@@H](CCCN=C(N)N)C(=O)N[C@@H](Cc1c[nH]c2ccccc12)C(=O)N[C@@H](CC(C)C)C(N)=O [WWLWWLRWL]

MIC [17]: 3.12 µM (≈ 4.74 µg/mL)
SMILES: CC(C)C[C@H](NC(=O)[C@H](Cc1c[nH]c2ccccc12)NC(=O)[C@H](Cc1c[nH]c2ccccc12)NC(=O)[C@H](CC(C)C)NC(=O)[C@H](Cc1c[nH]c2ccccc12)NC(=O)[C@@H](N)Cc1c[nH]c2ccccc12)C(=O)N[C@@H](Cc1c[nH]c2ccccc12)C(=O)N[C@@H](Cc1c[nH]c2ccccc12)C(=O)N[C@@H](CCCN=C(N)N)C(N)=O [WWLWWLWWR]
